These results are taken from patent US20220160666A1, “COMPOSITIONS FOR USE IN SURGERY” (BTG INTERNATIONAL LIMITED, priority 2004, published 2022).

The test system of test [1] is brain field potentials (EEG power spectrum). Conditions: rats, cited from earlier work; for change of EEG theta, alpha1,2 and beta1,2 power: α2-adrenoceptor agonists, Dimpfel and Schober, 2001; for change of EEG alpha1,2 and beta1,2 power: general anaesthetics, Dimpfel, 2003.
Test [2] concerns electrical activity of the human brain. As to the kind of experiment: Quantitative EEG (CATEEM) during and after 24 h intravenous infusion in healthy male volunteers, placebo-controlled crossover. It is filed as in vivo. The conditions noted are these: 300 mg/kg iv over 24 h. From the text:
The present inventors have now studied the effect of ketosis, in the exemplified case induced by administration of sodium salt of (R)-3-hydroxybutyrate (herein referred to as KTX 0101) as a single intravenous infusion of increasing dose and duration to 3 groups (Parts A, B and C) with 3 cohorts of 3 subjects each in Part A, and 1 cohort in each of Parts B (n=3) and C (n=8). Parts A and B were a partial crossover design and Part C was a crossover design. For details see protocol.
A 17-electrode EEG was recorded pre-dose and at 6, 12 and 24 h during the infusion and 1 and 24 hours following the end of drug administration. Recordings were performed under two physiological conditions, namely with 5 minutes eyes open and eyes closed, respectively. KTX 0101 was administered intravenously at a dose of 300 mg/kg given over 24 hours to 1 cohort (n=8) in a double blind placebo controlled crossover design (Part C of the study).
Single rising doses of KTX 0101 or placebo were administered to groups of healthy male volunteers according to a pre-specified dose escalation schedule (see main report). Incremental doses were administered in a stepwise manner proceeding to each higher dose only if the drug was well tolerated and the criteria for stopping dosing had not been met. The last two cohorts obtained the highest doses of 300 mg/kg and consisted of enough volunteers to justify a preliminary evaluation of recorded EEG data in order to obtain information on the pharmacodynamic effects of the potential drug. After recording of pre dose values the infusion was started and continued for 24 hours. EEG recordings took place during the infusion (6, 12 and 24 h) and 1 and 24 h after the end of the infusion. Each recording period was performed under 5 minutes eyes open and 5 minutes of eyes closed condition.
The EEG was recorded bipolarly from 17 surface electrodes according to the international 10/20 system with Cz as a physical reference electrode (Computer aided topographical electro-encephalo-metry: CATEEM® from MediSyst GmbH, 35440 Linden, Germany), using an electrocap. The raw signals were amplified, digitized (2048 Hz/12 bit) and transmitted via fiber optical devices to the computer. […] ECG and EOG were recorded in one channel each in order to facilitate detection of those signals superposing on to the EEG. […] The amount of rejected data was determined automatically and given in percent of total recording time. […] The data was recorded under two physiological conditions over a period of 5 minutes each (eyes open and eyes closed).
Using a Lagrange interpolation, signals from 82 additional virtual electrodes were calculated to provide high resolution topographical maps. […] Data were analysed from 0.86 to 35 Hz using the CATEEM® software. […]

For the compound `CC(Oc1c(Cl)cccc1Cl)C1=NCCN1` (single isomer, unassigned; (-)) [(-)lofexidine], in test [1], the “change of EEG theta, alpha1,2 and beta1,2 power” value (from here on “change of EEG theta”) is “Combined increases in theta, alpha1,2 and beta1,2 power”. As to `C[C@@H](O)CC(=O)[O-].[Na+]` [KTX 0101, sodium salt of (R)-3-hydroxybutyrate], the “time after end of infusion up to which EEG changes could be traced” value in test [2] was “up to 24 hours”. Also, the “change of EEG electrical power relative to pre-drug values” in test [2] (averaged over 15 electrode positions, during and after infusion) was “increases of electrical power were observed, especially with respect to theta, alpha and beta power”. Besides, the “change of EEG electrical power relative to pre-dose values” was “increases of electrical power could be observed for the 6 h time period, less for the 12 h period but consistently thereafter” in test [2] (eyes closed, centro-parietal regions, theta, alpha1, alpha2 and beta 1 ranges); “an increase of delta and theta power as well as of alpha power is observed” in test [2] (eyes open, single electrode positions (FIG. 1)). For `Clc1cccc(Cl)c1N=C1NCCN1` [clonidine], the “change of EEG theta” value in test [1] was “Combined increases in theta, alpha1,2 and beta1,2 power”. Regarding `FC(F)OC(F)C(F)(F)F` (stereo not shown) [desflurane], the “change of EEG alpha1,2 and beta1,2 power” value in test [1] is “combined increases in alpha1,2 and beta1,2 power”. `FC(F)OC(F)(F)C(F)Cl` (stereo not shown) [enflurane]: the “change of EEG alpha1,2 and beta1,2 power” value in test [1] is “combined increases in alpha1,2 and beta1,2 power”. Consider `N=C(N)NC(=O)Cc1c(Cl)cccc1Cl` [guanfacine], for which the “change of EEG theta” value in test [1] is “Combined increases in theta, alpha1,2 and beta1,2 power”. Consider `FC(F)(F)C(Cl)Br` (stereo not shown) [halothane], for which the “change of EEG alpha1,2 and beta1,2 power” value in test [1] is “combined increases in alpha1,2 and beta1,2 power”.

On to `COc1nc(C)nc(Cl)c1N=C1NCCN1` [maxonidine], for which, in test [1], the “change of EEG theta” value was “Combined increases in theta, alpha1,2 and beta1,2 power”. Consider `Cc1cccc(C(C)c2c[nH]cn2)c1C` (stereo not shown) [metedomidine], for which the “change of EEG theta” value in test [1] is “Combined increases in theta, alpha1,2 and beta1,2 power”.

Take isoflurothane: the “change of EEG alpha1,2 and beta1,2 power” value in test [1] is “combined increases in alpha1,2 and beta1,2 power”.
